According to ChEMBL document CHEMBL5620353, “Novel antifungal triazoles with alkynyl-methoxyl side chains: Design, synthesis, and biological activity evaluation” (Eur J Med Chem, 2023):

How the values were obtained:
Type in all cases: functional
Saccharomyces cerevisiae [1] = assay: Antifungal activity against recombinant Saccharomyces cerevisiae Y2300 overexpressing ScErg11 assessed as inhibition of fungal growth incubated for 48 hrs by microbroth dilution method
Saccharomyces cerevisiae [2] = assay: Antifungal activity against recombinant Saccharomyces cerevisiae Y525 overexpressing CaMdr1 assessed as inhibition of fungal growth incubated for 48 hrs by microbroth dilution method
Saccharomyces cerevisiae [3] = assay: Antifungal activity against recombinant Saccharomyces cerevisiae Y570 overexpressing CaCdr1 assessed as inhibition of fungal growth incubated for 48 hrs by microbroth dilution method
Saccharomyces cerevisiae [4] = assay: Antifungal activity against recombinant Saccharomyces cerevisiae Y2374 overexpressing CgErg11 assessed as inhibition of fungal growth incubated for 48 hrs by microbroth dilution method
Saccharomyces cerevisiae [5] = assay: Antifungal activity against recombinant Saccharomyces cerevisiae Y2716 overexpressing CpErg11 Y132F CpCpr assessed as inhibition of fungal growth incubated for 48 hrs by microbroth dilution method
Saccharomyces cerevisiae [6] = assay: Antifungal activity against recombinant Saccharomyces cerevisiae Y2411 overexpressing ScErg11 assessed as inhibition of fungal growth incubated for 48 hrs by microbroth dilution method
Saccharomyces cerevisiae [7] = assay: Antifungal activity against recombinant Saccharomyces cerevisiae Y2513 overexpressing ScErg11 Y140H assessed as inhibition of fungal growth incubated for 48 hrs by microbroth dilution method
Saccharomyces cerevisiae [8] = assay: Antifungal activity against recombinant Saccharomyces cerevisiae Y2462 overexpressing ScErg11 ScNcp1 assessed as inhibition of fungal growth incubated for 48 hrs by microbroth dilution method
Saccharomyces cerevisiae [9] = assay: Antifungal activity against recombinant Saccharomyces cerevisiae Y2721 overexpressing CpErg11 CpCpr assessed as inhibition of fungal growth incubated for 48 hrs by microbroth dilution method
Saccharomyces cerevisiae [10] = assay: Antifungal activity against recombinant Saccharomyces cerevisiae Y2459 overexpressing CaErg11 CaCpr assessed as inhibition of fungal growth incubated for 48 hrs by microbroth dilution method
Saccharomyces cerevisiae [11] = assay: Antifungal activity against recombinant Saccharomyces cerevisiae Y2301 overexpressing ScErg11 Y140F assessed as inhibition of fungal growth incubated for 48 hrs by microbroth dilution method
Saccharomyces cerevisiae [12] = assay: Resistance index, ratio of MIC for recombinant Saccharomyces cerevisiae Y525 overexpressing CaMdr1 to MIC for recombinant Saccharomyces cerevisiae Y2411 overexpressing ScErg11

SMILES	MIC (Saccharomyces cerevisiae [1]) [mg/L]	MIC (Saccharomyces cerevisiae [2]) [mg/L]	MIC (Saccharomyces cerevisiae [3]) [mg/L]	MIC (Saccharomyces cerevisiae [4]) [mg/L]	MIC (Saccharomyces cerevisiae [5]) [mg/L]	MIC (Saccharomyces cerevisiae [6]) [mg/L]	MIC (Saccharomyces cerevisiae [7]) [mg/L]	MIC (Saccharomyces cerevisiae [8]) [mg/L]	MIC (Saccharomyces cerevisiae [9]) [mg/L]	MIC (Saccharomyces cerevisiae [10]) [mg/L]	MIC (Saccharomyces cerevisiae [11]) [mg/L]	Ratio (Saccharomyces cerevisiae [12])
CC[C@@H]([C@H](C)O)n1ncn(-c2ccc(N3CCN(c4ccc(OC[C@@H]5CO[C@@](Cn6cncn6)(c6ccc(F)cc6F)C5)cc4)CC3)cc2)c1=O [POSACONAZOLE]	2	1	16	1	1	0.5	1	2	1	2	2	
C[C@@H](c1ncncc1F)[C@](O)(Cn1cncn1)c1ccc(F)cc1F [VORICONAZOLE]	0.031	0.5	8	0.031	0.25	0.008	0.031	0.063	0.063	0.016	0.031	64
